Experimental data taken from patent US4500708A, “Benzothiazine derivatives” (G. D. Serle & Co., priority 1984, dated 1985).

Experiments:
[1] = Food intake test (food-deprived rats); format: in vivo, Male Sprague-Dawley derived rats
Experimental: (§1) Male Sprague-Dawley derived rats, Charles River Breeders (Portage, MI), weighing between 200-400 grams at the time of testing, were employed in the food intake studies and water intake studies. The rats were housed individually and kept on a 12 hour light-dark light cycle. The room temperature ranged between 23°-25° C.
The rats employed in food intake testing were food deprived on the day preceding testing and were divided into experimental groups that were matched on the basis of average daily food intake and body weight. At approximately 24 hours post-deprivation, the rats were administered a test sample containing as the active ingredient a compound of the present invention. All test samples employed herein were prepared and homogenized in a vehicle of normal saline (to which a few drops of PG/Tween 80 was added). The test samples were administered at an injection volume of 2 ml./kg, unless otherwise stated. Thirty minutes following administration of the test samples, pre-weighed food jars, containing ground meal, were placed in the rats' cages. (Prior to testing the rats were given ground meal for a minimum of 3 days to familiarize the rats with this food.) After 1, 2 and 6 hours of food access, the jars were removed, weighed and returned to the rats' cages providing a 1, 2 and 6 hour intake measurement. The results obtained are represented in Table I. A student t test was used for making statistical comparisons, and the p-values are based upon two-tailed comparisons. The compound employed as the active ingredient of the test sample is indicated by the example number which describes its preparation.

[2] = Water intake test (water-deprived rats); format: in vivo, Male Sprague-Dawley derived rats; details: for Water Intake as a % of Control, 15 m: 15 minutes; for Water Intake as a % of Control, 30 m: 30 minutes; for Water Intake as a % of Control, 45 m: 45 minutes; for Water Intake as a % of Control, 60 m: 60 minutes; for Water Intake as a % of Control, 120 m: 120 minutes
Experimental: as §1
The rats employed in water intake testing were water deprived for 1 day and then maintained on a restricted water schedule. Water was available for two hours on the first day post water deprivation and for 1 hour each day afterwards for a minimum of 1 week. Using drinking tubes (50 ml. graduated cylinders), water intake was measured for at least 3 consecutive days prior to testing. On the day preceding testing, rats were divided into different experimental groups that were matched on the basis of avg. 0-15 min. water intake and body weight. On the day of testing, a test sample, containing as the active ingredient the compound prepared in Example 2, was administered. […] Food was removed from the animal at the start of the drinking test. A student t test was used for making statistical comparisons, and the p-values are based upon two-tailed comparisons.

[3] = 32.0 mg/kg i.g., injection volume 3.0 ml./kg
[4] = 75.0 mg/kg i.g., injection volume 3.0 ml./kg

O=c1c(-c2ccc(Cl)cc2)c2c(cn1CO)Sc1ccccc1N2 [Example 1, 4-(4-chlorophenyl)-2-(hydroxymethyl)-5H-pyrido[3,4-b][1,4]benzothiazin-3(2H)-one]
Food Intake % of control, 1 Hr. ([1]; 10.0 mg/kg i.g.): 109.8 % of control
Food Intake % of control, 2 Hr. ([1]; 10.0 mg/kg i.g.): 104.5 % of control
Food Intake % of control, 6 Hr. ([1]; 10.0 mg/kg i.g.): 92.1 % of control
Food Intake % of control, 1 Hr. ([1]; 32.0 mg/kg i.g.): 90.2 % of control
Food Intake % of control, 2 Hr. ([1]; 32.0 mg/kg i.g.): 86.6 % of control
Food Intake % of control, 6 Hr. ([1]; 32.0 mg/kg i.g.): 86.5 % of control
oral appetite suppressant activity [1]: possess oral appetite suppressant activity

CCCC(=O)OCn1cc2c(c(-c3ccc(Cl)cc3)c1=O)Nc1ccccc1S2 [Example 2, 4-(4-chlorophenyl)-2-[(1-oxobutoxy)methyl]-5H-pyrido[3,4-b][1,4]benzothiazin-3-(2H)-one]
Water Intake as a % of Control, 15 m ([2]; 10.0 mg/kg i.g.): 96.4 % of Control
Water Intake as a % of Control, 30 m ([2]; 10.0 mg/kg i.g.): 98.3 % of Control
Water Intake as a % of Control, 45 m ([2]; 10.0 mg/kg i.g.): 99.2 % of Control
Water Intake as a % of Control, 60 m ([2]; 10.0 mg/kg i.g.): 100.0 % of Control
Water Intake as a % of Control, 120 m ([2]; 10.0 mg/kg i.g.): 103.7 % of Control
Water Intake as a % of Control, 15 m ([2]; 18.0 mg/kg i.g.): 89.2 % of Control
Water Intake as a % of Control, 30 m ([2]; 18.0 mg/kg i.g.): 89.1 % of Control
Water Intake as a % of Control, 45 m ([2]; 18.0 mg/kg i.g.): 88.6 % of Control
Water Intake as a % of Control, 60 m ([2]; 18.0 mg/kg i.g.): 92.0 % of Control
Water Intake as a % of Control, 120 m ([2]; 18.0 mg/kg i.g.): 94.8 % of Control
Water Intake as a % of Control, 15 m ([2]; 32.0 mg/kg i.g.): 64.9 % of Control
Water Intake as a % of Control, 30 m ([2]; 32.0 mg/kg i.g.): 69.7 % of Control
Water Intake as a % of Control, 45 m ([2]; 32.0 mg/kg i.g.): 70.7 % of Control
Water Intake as a % of Control, 60 m ([2]; 32.0 mg/kg i.g.): 75.2 % of Control
Water Intake as a % of Control, 120 m ([2]; 32.0 mg/kg i.g.): 79.3 % of Control
Food Intake % of control, 1 Hr. ([1]; 1.0 mg/kg i.p.): 87.9 % of control
Food Intake % of control, 2 Hr. ([1]; 1.0 mg/kg i.p.): 90.9 % of control
Food Intake % of control, 6 Hr. ([1]; 1.0 mg/kg i.p.): 100.0 % of control
Food Intake % of control, 1 Hr. ([1]; 3.2 mg/kg i.p.): 57.6 % of control
Food Intake % of control, 2 Hr. ([1]; 3.2 mg/kg i.p.): 76.6 % of control
Food Intake % of control, 6 Hr. ([1]; 3.2 mg/kg i.p.): 91.0 % of control
Food Intake % of control, 1 Hr. ([1]; 10.0 mg/kg i.g.): 85.7 % of control
Food Intake % of control, 2 Hr. ([1]; 10.0 mg/kg i.g.): 93.6 % of control
Food Intake % of control, 6 Hr. ([1]; 10.0 mg/kg i.g.): 92.5 % of control
Food Intake % of control, 1 Hr. ([1]; 10.0 mg/kg i.p.): 39.4 % of control
Food Intake % of control, 2 Hr. ([1]; 10.0 mg/kg i.p.): 61.0 % of control
Food Intake % of control, 6 Hr. ([1]; 10.0 mg/kg i.p.): 88.1 % of control
Food Intake % of control, 1 Hr. ([1]; 32.0 mg/kg i.g.): 57.1 % of control
Food Intake % of control, 2 Hr. ([1]; 32.0 mg/kg i.g.): 74.4 % of control
Food Intake % of control, 6 Hr. ([1]; 32.0 mg/kg i.g.): 87.9 % of control
Food Intake % of control, 1 Hr. ([1]; 32.0 mg/kg i.p.): 30.3 % of control
Food Intake % of control, 2 Hr. ([1]; 32.0 mg/kg i.p.): 40.3 % of control
Food Intake % of control, 6 Hr. ([1]; 32.0 mg/kg i.p.): 70.3 % of control
oral appetite suppressant activity [1]: possess oral appetite suppressant activity

CCCCC(=O)OCn1cc2c(c(-c3ccc(Cl)cc3)c1=O)Nc1ccccc1S2 [Example 3, 4-(4-chlorophenyl)-2-[(1-oxopentoxy)methyl]-5H-pyrido[3,4-b][1,4]benzothiazin-3(2H)-one]
Food Intake % of control, 1 Hr. [1, 3]: 83.3 % of control
Food Intake % of control, 2 Hr. [1, 3]: 100.0 % of control
Food Intake % of control, 6 Hr. [1, 3]: 111.5 % of control
Food Intake % of control, 1 Hr. [1, 4]: 68.5 % of control
Food Intake % of control, 2 Hr. [1, 4]: 96.8 % of control
Food Intake % of control, 6 Hr. [1, 4]: 102.6 % of control
oral appetite suppressant activity [1]: possess oral appetite suppressant activity

O=c1c(-c2ccc(Cl)cc2)c2c(cn1CO)Sc1ccc(Cl)cc1N2 [Example 5, 7-chloro-4-(4-chlorophenyl)-2-(hydroxymethyl)-5H-pyrido[3,4-b][1,4]benzothiazin-3(2H)-one]
Food Intake % of control, 1 Hr. ([1]; 75.0 mg/kg i.g.): 89.9 % of control
Food Intake % of control, 2 Hr. ([1]; 75.0 mg/kg i.g.): 96.1 % of control
Food Intake % of control, 6 Hr. ([1]; 75.0 mg/kg i.g.): 83.1 % of control

CC(C)(C)C(=O)OCn1cc2c(c(-c3ccc(Cl)cc3)c1=O)Nc1ccccc1S2 [Example 9, 4-(4-chlorophenyl)-2-[(2,2-dimethyl-1-oxopropoxy)methyl]-5H-pyrido[3,4-b][1,4]benzothiazin-3(2H)-one]
Food Intake % of control, 1 Hr. ([1]; 10.0 mg/kg i.g.): 111.1 % of control
Food Intake % of control, 2 Hr. ([1]; 10.0 mg/kg i.g.): 102.6 % of control
Food Intake % of control, 6 Hr. ([1]; 10.0 mg/kg i.g.): 96.3 % of control
Food Intake % of control, 1 Hr. ([1]; 32.0 mg/kg i.g.): 111.1 % of control
Food Intake % of control, 2 Hr. ([1]; 32.0 mg/kg i.g.): 106.4 % of control
Food Intake % of control, 6 Hr. ([1]; 32.0 mg/kg i.g.): 92.5 % of control
